Results on two molecules are retold here after ChEMBL document CHEMBL5647694, “Novel orally bioavailable EZH1/2 dual inhibitors with greater antitumor efficacy than an EZH2 selective inhibitor” (Cancer Sci, 2017).

Test [1] deals with Mitogen-activated protein kinase kinase kinase kinase 2 (Homo sapiens) (UniProt Q12851). Description: Inhibition of N-terminal GST-fused full length human MAP4K2 (1 to 820 residues) expressed in baculovirus expression system using S6K2 peptide as substrate at 1 uM in presence of ATP by Mobility shift assay.
Test [2] concerns the target Mitogen-activated protein kinase kinase kinase kinase 4 (Homo sapiens) (UniProt O95819). Description: Inhibition of N-terminal GST-fused human HGK catalytic domain (1 to 328 residues) expressed in baculovirus expression system using Moesin-derived peptide as substrate at 1 uM in presence of ATP by Mobility shift assay.
The target of test [3] is Cyclin-dependent kinase 5/CDK5 activator 1 (Homo sapiens) (UniProt Q00535+Q15078). Kind of test: Inhibition of N-terminal GST-tagged full length human CDK5 (1 to 292 residues)/N-terminal GST-tagged human p25 (99 to 307 residues) expressed in baculovirus-infected Sf21 cells using Modified Histone H1 as substrate at 1 uM in presence of ATP by Mobility shift assay.
The target in test [4] is Serine/threonine-protein kinase 3 (Homo sapiens) (UniProt Q13188). Description: Inhibition of N-terminal GST-fused full length human MST2 (1 to 491 residues) expressed in baculovirus expression system using IRS1 as substrate at 1 uM in presence of ATP by Mobility shift assay.
In test [5] the target is Tyrosine-protein kinase Fes/Fps (Homo sapiens) (UniProt P07332). Kind of test: Inhibition of N-terminal GST-fused full length human FES (1 to 413, 416 to 822 residues) expressed in baculovirus-infected Sf21 cells using Srctide as substrate at 1 uM in presence of ATP by Mobility shift assay.
For test [6], the target named is Ribosomal protein S6 kinase alpha-6 (Homo sapiens) (UniProt Q9UK32). Kind of test: Inhibition of N-terminal GST-fused human full length RSK4 (1 to 745 residues) expressed in baculovirus expression system using S6K peptide(N-FL) as substrate at 1 uM in presence of ATP by Mobility shift assay.
In test [7] the target is Ephrin type-A receptor 7 (Homo sapiens) (UniProt Q15375). Kind of test: Inhibition of N-terminal GST-fused human EPHA7 cytoplasmic domain (595 to 998 residues) expressed in baculovirus-infected Sf21 cells using Blk/Lyntide as substrate at 1 uM in presence of ATP by Mobility shift assay.
The target of test [8] is Serine/threonine-protein kinase Nek4 (Homo sapiens) (UniProt P51957). Description: Inhibition of N-terminal GST-tagged full length human NEK4 (1 to 841 residues) expressed in baculovirus expression system using GS peptide as substrate at 1 uM in presence of ATP by Mobility shift assay.
The target in test [9] is Aurora kinase B (Homo sapiens) (UniProt Q96GD4). Kind of test: Inhibition of human AurB at 1 uM by Mobility shift assay.
The target in test [10] is Tyrosine-protein kinase Mer (Homo sapiens) (UniProt Q12866). Kind of test: Inhibition of N-terminal GST-tagged human MER cytoplasmic domain (528 to 999 residues) expressed in baculovirus-infected Sf21 cells using CSKtide as substrate at 1 uM in presence of ATP by Mobility shift assay.
Test [11] addresses Calcium/calmodulin-dependent protein kinase type II subunit beta (Homo sapiens) (UniProt Q13554). Kind of test: Inhibition of N-terminal GST-tagged full length human CAMK2b (1 to 503 residues) expressed in baculovirus-infected Sf21 cells using GS peptide as substrate at 1 uM in presence of ATP by Mobility shift assay.
Test [12] has as its target Serine/threonine-protein kinase haspin (Homo sapiens) (UniProt Q8TF76). Description: Inhibition of N-terminal GST-fused full length human Haspin (1 to 798 residues) expressed in baculovirus expression system using Histone H3 peptide as substrate at 1 uM in presence of ATP by Mobility shift assay.
In test [13] the target is Macrophage-stimulating protein receptor (Homo sapiens) (UniProt Q04912). Kind of test: Inhibition of N-terminal GST-tagged human RON cytoplasmic domain (979 to 1400 residues) expressed in baculovirus-infected Sf21 cells using Srctide as substrate at 1 uM in presence of ATP by Mobility shift assay.
In test [14] the target is Serine/threonine-protein kinase WNK3 (Homo sapiens) (UniProt Q9BYP7). Description: Inhibition of N-terminal GST-fused human WNK3 catalytic domain (1 to 434 residues) expressed in baculovirus expression system using SPAKtide as substrate at 1 uM in presence of ATP by Mobility shift assay.
In test [15] the target is Serine/threonine-protein kinase BRSK1 (Homo sapiens) (UniProt Q8TDC3). Description: Inhibition of N-terminal GST-tagged full length human BRSK1 (1 to 778 residues) expressed in baculovirus-infected Sf21 cells using CHKtide as substrate at 1 uM in presence of ATP by Mobility shift assay.
Test [16] deals with Phosphorylase b kinase gamma catalytic chain, liver/testis isoform (Homo sapiens) (UniProt P15735). Description: Inhibition of N-terminal GST-fused full length human PHKG2 (1 to 406 residues) expressed in baculovirus expression system using GS peptide as substrate at 1 uM in presence of ATP by Mobility shift assay.
Test [17] has as its target Receptor-type tyrosine-protein kinase FLT3 (Homo sapiens) (UniProt P36888). Kind of test: Inhibition of N-terminal GST-fused human FLT3 cytoplasmic domain (564 to 993 residues) expressed in baculovirus-infected Sf21 cells using Srctide as substrate at 1 uM in presence of ATP by Mobility shift assay.
Test [18] concerns the target Tyrosine-protein kinase BTK (Homo sapiens) (UniProt Q06187). Kind of test: Inhibition of N-terminal GST-fused full length human BTK (2 to 659 residues) expressed in baculovirus infected Sf21 cells using Srctide as substrate at 1 uM in presence of ATP by Mobility shift assay.
Test [19] has as its target Serine/threonine-protein kinase Nek2 (Homo sapiens) (UniProt P51955). Kind of test: Inhibition of N-terminal His-tagged full length human NEK2 (1 to 445 residues) expressed in baculovirus expression system using CDK7 peptide as substrate at 1 uM in presence of ATP by Mobility shift assay.
The target in test [20] is Mitogen-activated protein kinase 1 (Homo sapiens) (UniProt P28482). Kind of test: Inhibition of N-terminal GST-fused full length human ERK2 (1 to 360 residues) expressed in Escherichia coli expression system using Modified Erktide as substrate at 1 uM in presence of ATP by Mobility shift assay.
Test [21] addresses Mitogen-activated protein kinase 3 (Homo sapiens) (UniProt P27361). Description: Inhibition of N-terminal GST-fused full length human ERK1 (1 to 379 residues) expressed in Escherichia coli expression system using Modified Erktide as substrate at 1 uM in presence of ATP by Mobility shift assay.
The target of test [22] is Non-receptor tyrosine-protein kinase TNK1 (Homo sapiens) (UniProt Q13470). Description: Inhibition of N-terminal GST-tagged human TNK1 catalytic domain (106 to 390 residues) expressed in baculovirus-infected Sf21 cells using CSKtide as substrate at 1 uM in presence of ATP by Mobility shift assay.
The target in test [23] is Serine/threonine-protein kinase pim-1 (Homo sapiens) (UniProt P11309). Description: Inhibition of N-terminal His-tagged full length human PIM1 (1 to 313 residues) expressed in baculovirus expression system using S6K2 peptide as substrate at 1 uM in presence of ATP by Mobility shift assay.

What is called inhibition is the drop in the measured response relative to a control, in per cent. Turning to `Cc1cc(C)c(CNC(=O)c2cc(Br)c3c(c2C)O[C@@](C)([C@H]2CC[C@H](N(C)C)CC2)O3)c(=O)[nH]1`, the inhibition was 4.5% in test [1]; -0.2% in test [2]; 5.9% in test [3]; -2.1% in test [4]; -0.6% in test [5]; -2.5% in test [6]. Also, the inhibition in [7] is -3.3%; in test [8], -2%; in test [9], -3.7%; in test [10], -1.5%; in test [11] it was -0.3%; in [12], 6.5%. Further, the inhibition is -4.9% in test [13]; -9.2% in test [14]; -1.9% in [15]; 0.7% in [16]; -2.6% in [17]; -10% in test [18]. For the same molecule, the inhibition in test [19] is 1.5%; in [20] it was -6.6%; in test [21] it was -2.6%; in test [22], -3.4%; in test [23], 1.3%.
As to `Cc1cc(C)c(CNC(=O)c2cc(Cl)c3c(c2C)O[C@@](C)([C@H]2CC[C@H](N(C)C)CC2)O3)c(=O)[nH]1` [VALEMETOSTAT], the inhibition is 2.3% in [1]; 0.4% in test [2]; -2.4% in [3]; -1.4% in [4]; -2.7% in test [5]; -0.5% in test [6]. The inhibition in [7] is -1.9%; in test [8] it was -2.9%; in test [9], -1%; in [10] it was -1.6%; in test [11], -1.4%; in test [12] it was 12.2%. Besides, the inhibition in test [13] was -3.5%; in [14], -3.9%; in test [15], -3.6%; in test [16], -2%; in test [17], -1.5%; in test [18], -9%. For the same molecule, the inhibition in test [19] was 1.4%; in test [20], -8.8%; in test [21] it was -4.1%; in test [22], -6.8%; in [23] it was 17.1%.
